Data from ChEMBL document CHEMBL4616657, “Aromatic Esters of the Crinane Amaryllidaceae Alkaloid Ambelline as Selective Inhibitors of Butyrylcholinesterase” (J Nat Prod, 2020).

Columns and labels:
Cholinesterase [1] = biological target: T1, Cholinesterase (Homo sapiens, UniProt P06276); test: Inhibition of human BuChE using butyrylthiocholine iodide as substrate measured for 1 min by spectrophotometric based Ellman's method
Acetylcholinesterase [2] = biological target: T2, Acetylcholinesterase (Homo sapiens, UniProt P22303); test: Inhibition of human AChE using acetylthiocholine iodide as substrate measured for 1 min by spectrophotometric based Ellman's method
Acetylcholinesterase [3] = biological target: T2, Acetylcholinesterase; test: Inhibition of human AChE using acetylthiocholine iodide as substrate at 100 uM measured for 1 min by spectrophotometric based Ellman's method relative to control
Cholinesterase [4] = biological target: T1, Cholinesterase; test: Inhibition of human BuChE using butyrylthiocholine iodide as substrate at 100 uM measured for 1 min by spectrophotometric based Ellman's method relative to control
[5] = Effective permeability of the compound at pH 7.4 at 100 uM measured after 3 to 6 hrs by PAMPA assay; assay type: ADME; conditions: read-out: Peff
Homo sapiens = species on record: Homo sapiens; test: Selectivity index, ratio of IC50 for inhibition of human AChE using acetylthiocholine iodide as substrate to inhibition of human BuChE using butyrylthiocholine iodide as substrate
Cholinesterase [6] = biological target: Cholinesterase (Equus caballus, UniProt P81908); test: Inhibition of horse serum BuChE using butyrylthiocholine chloride as substrate by spectrophotometric based Ellman's method
Sequence of Cholinesterase (Equus caballus, UniProt P81908) (P81908 whole entry): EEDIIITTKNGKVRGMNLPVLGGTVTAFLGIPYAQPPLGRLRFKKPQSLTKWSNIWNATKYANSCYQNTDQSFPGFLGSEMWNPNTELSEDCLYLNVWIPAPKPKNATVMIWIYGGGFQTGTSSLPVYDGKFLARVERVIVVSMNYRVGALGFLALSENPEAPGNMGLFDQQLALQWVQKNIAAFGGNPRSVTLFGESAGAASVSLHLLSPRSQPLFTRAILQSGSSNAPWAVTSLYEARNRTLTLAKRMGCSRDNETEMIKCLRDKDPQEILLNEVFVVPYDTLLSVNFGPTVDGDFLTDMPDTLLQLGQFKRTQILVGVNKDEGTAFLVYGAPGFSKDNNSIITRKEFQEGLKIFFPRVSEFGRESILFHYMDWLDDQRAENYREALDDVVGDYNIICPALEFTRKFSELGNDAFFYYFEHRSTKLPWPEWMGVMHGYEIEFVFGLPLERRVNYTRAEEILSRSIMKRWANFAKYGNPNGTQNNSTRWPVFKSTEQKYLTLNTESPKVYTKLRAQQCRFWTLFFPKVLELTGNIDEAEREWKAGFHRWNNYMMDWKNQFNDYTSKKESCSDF

T2 sequence (P22303 whole entry): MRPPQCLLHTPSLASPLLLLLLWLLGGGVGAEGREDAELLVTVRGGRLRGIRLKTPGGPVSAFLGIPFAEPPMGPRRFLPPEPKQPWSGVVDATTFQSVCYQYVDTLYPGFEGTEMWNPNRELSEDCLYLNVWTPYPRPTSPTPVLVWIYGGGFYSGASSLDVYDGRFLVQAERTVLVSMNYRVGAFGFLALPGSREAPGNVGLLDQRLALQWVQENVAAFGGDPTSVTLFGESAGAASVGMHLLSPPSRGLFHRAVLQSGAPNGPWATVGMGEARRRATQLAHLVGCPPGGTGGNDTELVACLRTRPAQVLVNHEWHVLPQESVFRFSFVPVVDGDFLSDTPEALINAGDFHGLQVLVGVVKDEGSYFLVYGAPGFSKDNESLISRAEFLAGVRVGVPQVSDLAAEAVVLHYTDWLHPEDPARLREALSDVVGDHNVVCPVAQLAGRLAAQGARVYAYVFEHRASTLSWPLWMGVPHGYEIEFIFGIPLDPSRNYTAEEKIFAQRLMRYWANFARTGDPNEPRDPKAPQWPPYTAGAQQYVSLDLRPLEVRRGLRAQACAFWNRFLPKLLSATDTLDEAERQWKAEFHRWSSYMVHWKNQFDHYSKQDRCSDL
T1 sequence (P06276 whole entry): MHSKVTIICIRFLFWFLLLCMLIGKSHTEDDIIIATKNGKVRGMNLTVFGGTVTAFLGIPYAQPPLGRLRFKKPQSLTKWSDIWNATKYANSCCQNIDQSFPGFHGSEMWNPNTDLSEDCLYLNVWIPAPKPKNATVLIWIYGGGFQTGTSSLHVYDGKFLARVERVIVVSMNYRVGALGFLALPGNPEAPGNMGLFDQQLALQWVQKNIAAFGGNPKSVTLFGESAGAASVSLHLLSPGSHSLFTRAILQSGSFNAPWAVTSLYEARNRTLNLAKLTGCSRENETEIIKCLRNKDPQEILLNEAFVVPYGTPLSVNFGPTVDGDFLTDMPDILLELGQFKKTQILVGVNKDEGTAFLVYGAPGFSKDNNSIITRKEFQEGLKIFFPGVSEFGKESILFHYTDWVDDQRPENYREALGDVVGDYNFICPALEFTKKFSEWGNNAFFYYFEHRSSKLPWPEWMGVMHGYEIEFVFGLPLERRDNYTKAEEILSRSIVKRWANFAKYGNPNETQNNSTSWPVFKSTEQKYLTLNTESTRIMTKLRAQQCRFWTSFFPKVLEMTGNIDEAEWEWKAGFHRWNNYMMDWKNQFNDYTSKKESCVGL

Row | Compound | IC50 (Cholinesterase [1]) [µM] | IC50 (Acetylcholinesterase [2]) [µM] | inhibition (Acetylcholinesterase [3]) [%] | inhibition (Cholinesterase [4]) [%] | Papp at 100 µM [5] [nm/s] | Ratio IC50 (Homo sapiens) | IC50 (Cholinesterase [6]) [µM]
1 | COc1c2c(cc3c1OCO3)[C@]13C=C[C@H](OC)C[C@@H]1N(C2)C[C@H]3OC(=O)c1cccc([N+](=O)[O-])c1 | 81 | 48 | – | – | – | – | –
2 | COc1c2c(cc3c1OCO3)[C@]13C=C[C@H](OC)C[C@@H]1[N@](C2)C[C@H]3OC(C)=O | – | – | 4 | 28 | – | – | –
3 | CCC(=O)O[C@@H]1C[N@@]2Cc3c(cc4c(c3OC)OCO4)[C@@]13C=C[C@H](OC)C[C@H]23 | > 100 | > 100 | 15 | 16 | – | – | –
4 | COc1cccc(C(=O)O[C@@H]2CN3Cc4c(cc5c(c4OC)OCO5)[C@@]24C=C[C@H](OC)C[C@H]34)c1 | 6 | > 100 | – | – | – | – | –
5 | COc1ccccc1C(=O)O[C@@H]1CN2Cc3c(cc4c(c3OC)OCO4)[C@@]13C=C[C@H](OC)C[C@H]23 | 0.43 | > 100 | – | – | 120 | – | –
6 | COc1c2c(cc3c1OCO3)[C@]13C=C[C@H](OC)C[C@@H]1[N@](C2)C[C@H]3OC(=O)c1cccc(C)c1 | – | – | 41 | 98 | – | > 116 | –
7 | COc1c2c(cc3c1OCO3)[C@]13C=C[C@H](OC)C[C@@H]1N(C2)C[C@H]3OC(=O)c1ccccc1[N+](=O)[O-] | 2.3 | 54 | – | – | 120 | – | –
8 | COc1c2c(cc3c1OCO3)[C@]13C=C[C@H](OC)C[C@@H]1[N@](C2)C[C@H]3OC(=O)c1ccccc1 | – | – | 25 | 97 | – | > 26 | –
9 | COc1c2c(cc3c1OCO3)[C@]13C=C[C@H](OC)C[C@@H]1[N@](C2)C[C@H]3OC(=O)c1ccc(C)cc1 | – | – | 28 | 68 | – | > 4 | –
10 | COc1ccccc1C(=O)O[C@@H]1C[N@@]2Cc3c(cc4c(c3OC)OCO4)[C@@]13C=C[C@H](OC)C[C@H]23 | – | – | 31 | 99 | – | > 235 | –
11 | COc1c2c(cc3c1OCO3)[C@]13C=C[C@H](OC)C[C@@H]1N(C2)C[C@H]3OC(=O)c1ccco1 | > 100 | > 100 | – | – | – | – | –
12 | C[C@@H]([C@H]1CC[C@@]2(C)[C@@H]3CC[C@@H]4C(=CC3=CC[C@]12C)C=C[C@H](NC(=O)c1ccccc1)C4(C)C)N(C)C | – | – | – | – | – | – | 1.7
13 | COc1c2c(cc3c1OCO3)[C@]13C=C[C@H](OC)C[C@@H]1[N@](C2)C[C@H]3OC(=O)C(C)C | – | – | 3 | 12 | – | – | –
14 | CO[C@@H]1C=C[C@@]23c4cc5c(cc4CN(C[C@@H]2O)[C@H]3C1)OCO5 [(+)-HAEMANTHAMINE] | > 100 | > 100 | 6 | 13 | – | – | –
15 | C[C@@H]([C@H]1[C@H](O)C[C@@]2(C)[C@@H]3CC[C@H]4C(C)(C)C(=O)C=C[C@@]45C[C@@]35CC[C@]12C)N(C)C | – | – | – | – | – | – | 1.1
16 | COc1c2c(cc3c1OCO3)[C@]13C=C[C@H](OC)C[C@@H]1N(C2)C[C@H]3OC(=O)c1ccoc1 | 32 | > 100 | – | – | – | – | –
17 | COc1ccc(C(=O)O[C@@H]2CN3Cc4c(cc5c(c4OC)OCO5)[C@@]24C=C[C@H](OC)C[C@H]34)cc1OC | > 100 | > 100 | – | – | – | – | –
18 | COc1ccc(C(=O)O[C@@H]2C[N@@]3Cc4c(cc5c(c4OC)OCO5)[C@@]24C=C[C@H](OC)C[C@H]34)cc1 | > 100 | > 100 | 26 | 32 | – | – | –
19 | COc1c2c(cc3c1OCO3)[C@]13C=C[C@H](OC)C[C@@H]1N(C2)C[C@H]3OC(=O)c1cccc(C)c1 | 0.86 | > 100 | – | – | 80 | – | –

Row | Compound | IC50 (Cholinesterase [1]) [µM] | IC50 (Acetylcholinesterase [2]) [µM] | inhibition (Acetylcholinesterase [3]) [%] | inhibition (Cholinesterase [4]) [%] | Papp at 100 µM [5] [nm/s] | Ratio IC50 (Homo sapiens) | IC50 (Cholinesterase [6]) [µM]
20 | COc1c2c(cc3c1OCO3)[C@]13C=C[C@H](OC)C[C@@H]1[N@](C2)C[C@H]3OC(=O)c1ccccc1[N+](=O)[O-] | – | – | 75 | 97 | – | 23 | –
21 | COc1c2c(cc3c1OCO3)[C@]13C=C[C@H](OC)C[C@@H]1N(C2)C[C@H]3OC(=O)c1ccc2ccccc2c1 | 14 | > 100 | – | – | – | – | –
22 | COc1c2c(cc3c1OCO3)[C@]13C=C[C@H](OC)C[C@@H]1N(C2)C[C@H]3OC(=O)c1ccccc1 | 3.8 | > 100 | – | – | 120 | – | –
23 | COc1c2c(cc3c1OCO3)[C@]13C=C[C@H](OC)C[C@@H]1N(C2)C[C@H]3OC(=O)c1ccc(C)cc1 | 28 | > 100 | – | – | – | – | –
24 | COc1c2c(cc3c1OCO3)[C@]13C=C[C@H](OC)C[C@@H]1N(C2)C[C@H]3OC(=O)C(C)C | > 100 | > 100 | – | – | – | – | –
25 | COc1cccc(C(=O)O[C@@H]2C[N@@]3Cc4c(cc5c(c4OC)OCO5)[C@@]24C=C[C@H](OC)C[C@H]34)c1 | – | – | 25 | 91 | – | > 16 | –
26 | COc1c2c(cc3c1OCO3)[C@]13C=C[C@H](OC)C[C@@H]1[N@](C2)C[C@H]3OC(=O)c1ccc2ccccc2c1 | – | – | 29 | 77 | – | 5.2 | –
27 | COc1c2c(cc3c1OCO3)[C@]13C=C[C@H](OC)C[C@@H]1[N@](C2)C[C@H]3OC(=O)c1ccccc1C | 0.28 | 55 | 51 | 99 | 190 | 195 | –
28 | COc1c2c(cc3c1OCO3)[C@]13C=C[C@H](OC)C[C@@H]1N(C2)C[C@H]3OC(C)=O | > 100 | > 100 | – | – | – | – | –
29 | CCOc1cc(OCC)cc(C(=O)O[C@@H]2C[N@@]3Cc4c(cc5c(c4OC)OCO5)[C@@]24C=C[C@H](OC)C[C@H]34)c1 | > 100 | > 100 | 30 | 42 | – | – | –
30 | COc1ccc(C(=O)O[C@@H]2C[N@@]3Cc4c(cc5c(c4OC)OCO5)[C@@]24C=C[C@H](OC)C[C@H]34)cc1OC | – | – | 15 | 33 | – | – | –
31 | COc1c2c(cc3c1OCO3)[C@]13C=C[C@H](OC)C[C@@H]1[N@](C2)C[C@H]3OC(=O)c1ccoc1 | – | – | 12 | 61 | – | 1.9 | –
32 | COc1c2c(cc3c1OCO3)[C@]13C=C[C@H](OC)C[C@@H]1[N@](C2)C[C@H]3OC(=O)c1cccc2ccccc12 | – | – | 21 | 96 | – | > 1000 | –
33 | CCCCC(=O)O[C@@H]1C[N@@]2Cc3c(cc4c(c3OC)OCO4)[C@@]13C=C[C@H](OC)C[C@H]23 | > 100 | > 100 | 7 | 39 | – | – | –
34 | COc1c2c(cc3c1OCO3)[C@]13C=C[C@H](OC)C[C@@H]1[N@](C2)C[C@H]3O | > 100 | > 100 | 4 | 8 | – | – | –
35 | COc1c2c(cc3c1OCO3)[C@]13C=C[C@H](OC)C[C@@H]1N(C2)C[C@H]3OC(=O)c1cccc2ccccc12 | 0.1 | > 100 | – | – | 90 | – | –
36 | COc1c2c(cc3c1OCO3)[C@]13C=C[C@H](OC)C[C@@H]1[N@](C2)C[C@H]3OC(=O)c1ccco1 | – | – | 12 | 49 | – | – | –
37 | COc1c2c(cc3c1OCO3)[C@]13C=C[C@H](OC)C[C@@H]1[N@](C2)C[C@H]3OC(=O)c1cccc([N+](=O)[O-])c1 | – | – | 58 | 53 | – | 0.6 | –
38 | COc1c2c(cc3c1OCO3)[C@]13C=C[C@H](OC)C[C@@H]1[N@](C2)C[C@H]3OC(=O)c1ccc([N+](=O)[O-])cc1 | > 100 | > 100 | 31 | 37 | – | – | –
